Laboratory results taken from patent US11231416B2, “Virus-like particle (VLP) based small molecule-protein interaction trap” (VIB VZW, priority 2015, dated 2022).

Columns and labels:
Assay in all cases: Viral trapping in VLPs, MS analysis
Assay type in all cases: binding
[1] = target: T1, SREBF2 (Homo sapiens, UniProt Q12772); conditions: all proteins (incl. low confidence identifications)
T1 construct: endogenous in cells; host or cells: HEK293T
Description: (§1) For mass spectrometry, 10^7 HEK293T cells were seeded in five flasks (75 cm^2) and transfected the next day with a total of 15 μg DNA per flask using polyethylene imine reagent. The following DNA quantities were used per flask: 7.5 μg of GAG-eDHFR, 5.4 μg of mock vector and 2.1 μg of a 50/50 mix of pMD2.G and pcDNA3-FLAG-VSV-G. The small molecule fusions were added immediately after transfection to the producing cells at a concentration of 1 μM. The same dilution of dimethyl sulfoxide (DMSO) was added in control experiments to control the effect of this chemical on the cells. The cellular supernatant was harvested after 32 hours and was centrifuged for 3 minutes at 450×g to remove cellular debris. The cleared supernatant was then filtered using 0.45 μm filters (Millipore). A total of 100 μl MyOne™ Streptavidin T1 beads (Life Technologies) pre-loaded with 10 μg ANTI-FLAG® BioM2-Biotin antibody (Sigma-Aldrich®) was used to bind the tagged particles. Particles were allowed to bind for 2 hours by end-over-end rotation. The total supernatant was processed in three consecutive binding steps. Bead-particle complexes were washed once with washing buffer (TWB: 20 mM Tris-HCl pH 7.5, 150 mM NaCl) and were then eluted with FLAG peptide (200 μg/ml in TWB) and lysed by addition of SDS to a final concentration of 0.1%. After 5 minutes, SDS was removed using HiPPR Detergent Removal Spin Columns (Pierce, Thermo Scientific) followed by boiling and overnight digestion with 0.5 μg sequence-grade trypsin (Promega). After acidification (0.1% TFA final), the peptides were separated by nano-LC and directly analyzed with a Q Exactive instrument (Thermo Scientific).
(§2) For tamoxifen, four biological repeats were performed where the cells were treated with MTX-PEG6-tamoxifen after transfection. The obtained protein lists after viral trapping and MS analysis were challenged with protein lists coming from the four DMSO controls, the 19 control experiments and the lists obtained for the MTX-PEG6-simvastatin and MTX-PEG6-reversine (see below) for a total of 30 samples.

[2] = target: T2, UBQLN2 (Homo sapiens, UniProt Q9UHD9)
T2 construct: endogenous in cells; host or cells: HEK293T
T2 sequence (Q9UHD9 whole entry): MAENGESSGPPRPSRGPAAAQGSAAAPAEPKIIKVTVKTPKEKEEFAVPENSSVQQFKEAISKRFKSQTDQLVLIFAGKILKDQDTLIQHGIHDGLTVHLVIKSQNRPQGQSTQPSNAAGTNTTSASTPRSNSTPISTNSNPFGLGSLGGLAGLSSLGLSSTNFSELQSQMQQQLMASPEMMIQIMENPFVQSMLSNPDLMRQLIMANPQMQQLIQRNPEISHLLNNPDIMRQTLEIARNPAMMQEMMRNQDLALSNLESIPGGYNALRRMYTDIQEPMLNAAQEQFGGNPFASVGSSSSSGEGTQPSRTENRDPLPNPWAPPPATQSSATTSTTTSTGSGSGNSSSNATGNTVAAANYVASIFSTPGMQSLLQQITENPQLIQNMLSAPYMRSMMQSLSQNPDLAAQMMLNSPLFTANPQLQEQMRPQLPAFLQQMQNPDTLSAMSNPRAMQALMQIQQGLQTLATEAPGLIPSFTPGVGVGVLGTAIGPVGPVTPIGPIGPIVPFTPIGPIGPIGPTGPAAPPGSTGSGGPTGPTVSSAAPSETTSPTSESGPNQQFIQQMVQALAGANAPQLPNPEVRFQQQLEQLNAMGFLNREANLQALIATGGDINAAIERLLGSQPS
Description: as §1, §2

[3] = target: T3, ZMPSTE24 (Homo sapiens, UniProt O75844); conditions: all proteins (incl. low confidence identifications)
T3 construct: endogenous in cells; host or cells: HEK293T
Description: as §1, §2

[4] = target: T4, ATL2 (Homo sapiens, UniProt Q8NHH9); conditions: all proteins (incl. low confidence identifications)
T4 construct: endogenous in cells; host or cells: HEK293T
T4 sequence (Q8NHH9 whole entry): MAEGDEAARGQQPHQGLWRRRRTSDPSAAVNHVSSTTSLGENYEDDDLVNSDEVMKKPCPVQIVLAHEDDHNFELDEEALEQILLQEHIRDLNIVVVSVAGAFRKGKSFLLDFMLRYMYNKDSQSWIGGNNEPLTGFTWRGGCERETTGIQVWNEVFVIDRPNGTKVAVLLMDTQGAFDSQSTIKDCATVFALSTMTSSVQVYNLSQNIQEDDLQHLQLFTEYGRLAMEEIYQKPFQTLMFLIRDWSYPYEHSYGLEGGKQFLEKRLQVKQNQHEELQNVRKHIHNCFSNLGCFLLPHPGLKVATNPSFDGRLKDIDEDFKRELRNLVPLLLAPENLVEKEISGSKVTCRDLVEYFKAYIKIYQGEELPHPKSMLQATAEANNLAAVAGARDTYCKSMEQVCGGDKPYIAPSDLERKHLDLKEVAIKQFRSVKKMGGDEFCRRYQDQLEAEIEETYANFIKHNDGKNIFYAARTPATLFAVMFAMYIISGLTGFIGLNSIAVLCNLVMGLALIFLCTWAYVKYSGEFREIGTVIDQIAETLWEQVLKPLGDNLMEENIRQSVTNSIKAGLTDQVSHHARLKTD
Description: as §1, §2

[5] = target: T5, MINK1 (Homo sapiens, UniProt Q8N4C8); conditions: all proteins (incl. low confidence identifications)
T5 construct: endogenous in cells; host or cells: HEK293T
T5 sequence (Q8N4C8 whole entry): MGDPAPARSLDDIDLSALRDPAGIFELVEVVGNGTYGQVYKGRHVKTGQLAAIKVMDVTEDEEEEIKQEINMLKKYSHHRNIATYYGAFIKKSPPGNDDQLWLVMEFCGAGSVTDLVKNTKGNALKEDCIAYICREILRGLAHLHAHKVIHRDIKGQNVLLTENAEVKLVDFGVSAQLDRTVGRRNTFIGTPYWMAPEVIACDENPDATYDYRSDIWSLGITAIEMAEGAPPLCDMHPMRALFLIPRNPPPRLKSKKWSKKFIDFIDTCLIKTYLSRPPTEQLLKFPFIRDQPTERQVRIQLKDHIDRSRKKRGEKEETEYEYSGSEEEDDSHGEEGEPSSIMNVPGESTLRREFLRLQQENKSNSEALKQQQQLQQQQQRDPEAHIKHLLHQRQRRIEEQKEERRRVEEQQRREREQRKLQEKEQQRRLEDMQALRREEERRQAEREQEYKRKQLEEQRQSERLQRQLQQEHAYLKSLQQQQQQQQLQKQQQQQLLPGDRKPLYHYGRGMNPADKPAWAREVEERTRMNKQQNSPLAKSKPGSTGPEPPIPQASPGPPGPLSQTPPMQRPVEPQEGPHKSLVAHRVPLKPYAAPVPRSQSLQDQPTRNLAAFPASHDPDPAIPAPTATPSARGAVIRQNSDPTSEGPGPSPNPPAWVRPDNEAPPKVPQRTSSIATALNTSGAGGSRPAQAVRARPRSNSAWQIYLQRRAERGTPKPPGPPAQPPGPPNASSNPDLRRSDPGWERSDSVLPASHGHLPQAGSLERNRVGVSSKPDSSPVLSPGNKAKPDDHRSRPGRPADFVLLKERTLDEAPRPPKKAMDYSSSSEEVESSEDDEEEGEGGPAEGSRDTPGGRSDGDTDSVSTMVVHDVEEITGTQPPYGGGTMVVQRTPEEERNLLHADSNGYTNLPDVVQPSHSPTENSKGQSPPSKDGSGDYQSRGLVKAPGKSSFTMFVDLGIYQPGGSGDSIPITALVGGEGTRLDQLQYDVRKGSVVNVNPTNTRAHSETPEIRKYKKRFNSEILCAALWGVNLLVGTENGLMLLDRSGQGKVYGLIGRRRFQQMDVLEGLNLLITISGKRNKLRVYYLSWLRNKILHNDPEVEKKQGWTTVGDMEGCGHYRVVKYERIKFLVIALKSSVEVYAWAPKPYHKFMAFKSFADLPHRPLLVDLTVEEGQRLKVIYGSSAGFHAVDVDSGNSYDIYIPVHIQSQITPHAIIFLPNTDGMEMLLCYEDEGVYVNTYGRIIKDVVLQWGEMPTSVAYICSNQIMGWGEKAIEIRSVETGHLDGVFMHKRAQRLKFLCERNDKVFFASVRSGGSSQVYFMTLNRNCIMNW
Description: as §1, §2

[6] = target: T6, ESYT2 (Homo sapiens, UniProt A0FGR8)
T6 construct: endogenous in cells; host or cells: HEK293T
T6 sequence (A0FGR8 whole entry): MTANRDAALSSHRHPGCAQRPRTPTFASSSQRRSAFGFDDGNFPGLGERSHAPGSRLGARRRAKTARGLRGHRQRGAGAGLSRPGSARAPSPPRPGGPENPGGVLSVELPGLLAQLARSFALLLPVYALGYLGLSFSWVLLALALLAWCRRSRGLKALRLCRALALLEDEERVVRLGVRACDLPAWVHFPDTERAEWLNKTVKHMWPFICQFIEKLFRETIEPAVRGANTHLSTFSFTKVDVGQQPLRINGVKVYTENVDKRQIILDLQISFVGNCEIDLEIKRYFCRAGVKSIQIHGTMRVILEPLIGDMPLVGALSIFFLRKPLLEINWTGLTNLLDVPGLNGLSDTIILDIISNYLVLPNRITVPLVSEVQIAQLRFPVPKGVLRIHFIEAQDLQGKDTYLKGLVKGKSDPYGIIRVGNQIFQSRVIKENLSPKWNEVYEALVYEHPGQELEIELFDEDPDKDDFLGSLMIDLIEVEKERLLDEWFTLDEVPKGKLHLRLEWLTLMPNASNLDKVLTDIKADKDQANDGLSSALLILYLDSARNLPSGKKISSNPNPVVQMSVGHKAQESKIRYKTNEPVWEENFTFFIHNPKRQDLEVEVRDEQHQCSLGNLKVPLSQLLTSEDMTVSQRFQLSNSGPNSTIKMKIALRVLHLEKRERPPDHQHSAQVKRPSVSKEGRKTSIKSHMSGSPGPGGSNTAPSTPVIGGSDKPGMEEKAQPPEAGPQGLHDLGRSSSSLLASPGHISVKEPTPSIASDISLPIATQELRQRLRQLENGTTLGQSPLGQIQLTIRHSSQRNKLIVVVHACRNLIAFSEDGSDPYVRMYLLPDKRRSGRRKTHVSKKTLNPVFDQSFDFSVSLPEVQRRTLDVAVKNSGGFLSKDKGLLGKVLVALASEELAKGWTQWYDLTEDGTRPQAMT
Description: as §1, §2

[7] = target: T7, HSD17B4 (Homo sapiens, UniProt P51659)
T7 construct: endogenous in cells; host or cells: HEK293T
T7 sequence (P51659 1-736): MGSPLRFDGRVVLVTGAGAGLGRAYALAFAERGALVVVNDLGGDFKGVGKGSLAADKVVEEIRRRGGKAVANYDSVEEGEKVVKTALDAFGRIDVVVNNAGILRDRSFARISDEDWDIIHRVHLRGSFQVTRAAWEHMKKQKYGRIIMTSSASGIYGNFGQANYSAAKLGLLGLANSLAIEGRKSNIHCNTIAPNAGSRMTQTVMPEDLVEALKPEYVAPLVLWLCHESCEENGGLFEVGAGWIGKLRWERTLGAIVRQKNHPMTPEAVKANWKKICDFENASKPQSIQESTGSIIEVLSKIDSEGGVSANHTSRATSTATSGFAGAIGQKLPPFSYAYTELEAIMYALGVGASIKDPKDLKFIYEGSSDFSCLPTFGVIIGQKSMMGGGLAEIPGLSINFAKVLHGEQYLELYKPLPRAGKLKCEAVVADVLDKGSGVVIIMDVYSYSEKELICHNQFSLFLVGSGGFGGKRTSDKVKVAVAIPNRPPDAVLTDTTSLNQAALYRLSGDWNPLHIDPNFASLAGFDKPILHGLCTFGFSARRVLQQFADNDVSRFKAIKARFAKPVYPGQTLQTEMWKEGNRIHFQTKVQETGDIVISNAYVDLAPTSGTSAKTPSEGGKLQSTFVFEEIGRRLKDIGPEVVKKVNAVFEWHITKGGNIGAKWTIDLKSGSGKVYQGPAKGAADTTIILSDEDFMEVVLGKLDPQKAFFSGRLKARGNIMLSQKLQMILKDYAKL
Description: as §1, §2

[8] = target: T8, PTPLAD1 (Homo sapiens, UniProt Q9P035); conditions: all proteins (incl. low confidence identifications)
T8 construct: endogenous in cells; host or cells: HEK293T
Description: as §1, §2

[9] = target: T9, WDR36 (Homo sapiens, UniProt Q8NI36); conditions: all proteins (incl. low confidence identifications)
T9 construct: endogenous in cells; host or cells: HEK293T
T9 sequence (Q8NI36 whole entry): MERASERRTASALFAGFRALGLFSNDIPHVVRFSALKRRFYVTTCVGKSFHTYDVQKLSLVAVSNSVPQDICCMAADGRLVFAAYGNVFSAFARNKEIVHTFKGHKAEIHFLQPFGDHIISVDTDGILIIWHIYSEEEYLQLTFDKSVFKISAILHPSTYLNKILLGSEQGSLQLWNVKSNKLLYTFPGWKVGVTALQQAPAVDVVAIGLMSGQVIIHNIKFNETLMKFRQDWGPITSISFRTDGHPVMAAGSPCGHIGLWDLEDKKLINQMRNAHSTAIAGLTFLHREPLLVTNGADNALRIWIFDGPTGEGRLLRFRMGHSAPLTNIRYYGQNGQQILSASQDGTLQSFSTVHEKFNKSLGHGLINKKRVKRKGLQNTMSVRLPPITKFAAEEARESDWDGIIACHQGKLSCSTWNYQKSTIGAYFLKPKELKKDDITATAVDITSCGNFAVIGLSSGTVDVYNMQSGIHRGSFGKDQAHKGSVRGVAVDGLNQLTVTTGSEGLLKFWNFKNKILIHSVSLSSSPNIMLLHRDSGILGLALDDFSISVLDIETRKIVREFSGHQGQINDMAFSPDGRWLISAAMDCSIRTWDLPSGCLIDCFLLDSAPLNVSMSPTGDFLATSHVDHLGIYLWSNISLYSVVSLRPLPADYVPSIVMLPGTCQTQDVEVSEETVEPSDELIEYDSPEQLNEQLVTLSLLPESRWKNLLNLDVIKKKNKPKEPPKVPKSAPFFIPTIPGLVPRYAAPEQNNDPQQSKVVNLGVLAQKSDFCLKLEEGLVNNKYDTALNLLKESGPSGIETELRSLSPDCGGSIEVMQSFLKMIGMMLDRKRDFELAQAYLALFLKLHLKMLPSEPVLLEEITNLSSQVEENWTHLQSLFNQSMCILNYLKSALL
Description: as §1, §2

[10] = target: T10, RNF5 (Homo sapiens, UniProt Q99942); conditions: all proteins (incl. low confidence identifications)
T10 construct: endogenous in cells; host or cells: HEK293T
T10 sequence (Q99942 whole entry): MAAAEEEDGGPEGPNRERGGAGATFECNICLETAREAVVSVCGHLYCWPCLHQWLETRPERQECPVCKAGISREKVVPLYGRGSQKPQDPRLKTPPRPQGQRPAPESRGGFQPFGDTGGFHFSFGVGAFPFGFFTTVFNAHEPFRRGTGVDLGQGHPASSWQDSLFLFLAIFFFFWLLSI
Description: as §1, §2

[11] = target: T11, PRAF2 (Homo sapiens, UniProt O60831); conditions: all proteins (incl. low confidence identifications)
T11 construct: endogenous in cells; host or cells: HEK293T
T11 sequence (O60831 whole entry): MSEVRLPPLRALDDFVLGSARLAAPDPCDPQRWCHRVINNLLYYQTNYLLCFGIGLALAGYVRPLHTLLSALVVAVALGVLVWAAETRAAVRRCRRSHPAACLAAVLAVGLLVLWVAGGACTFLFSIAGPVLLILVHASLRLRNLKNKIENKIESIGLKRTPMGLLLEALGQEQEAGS
Description: as §1, §2

[12] = target: T12, CGN1 (Bos taurus, UniProt P23805); conditions: all proteins (incl. low confidence identifications)
T12 construct: host or cells: VLPs from HEK293T supernatant
Description: as §1, §2

[13] = target: T13, VAPA (Homo sapiens, UniProt Q9P0L0)
T13 construct: endogenous in cells; host or cells: HEK293T
T13 sequence (Q9P0L0 whole entry): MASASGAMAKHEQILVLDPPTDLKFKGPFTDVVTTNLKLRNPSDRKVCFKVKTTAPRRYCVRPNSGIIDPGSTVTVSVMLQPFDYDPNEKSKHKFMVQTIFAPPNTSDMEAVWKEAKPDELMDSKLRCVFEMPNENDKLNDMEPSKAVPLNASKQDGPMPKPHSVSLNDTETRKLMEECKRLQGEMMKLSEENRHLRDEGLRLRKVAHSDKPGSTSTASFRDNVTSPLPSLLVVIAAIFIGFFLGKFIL
Description: as §1, §2

[14] = all proteins (incl. low confidence identifications)
[15] = proteins identified with >1 peptide (high confidence)

Measured: Recurrence (x/4)

CCC(=C(c1ccccc1)c1ccc(OCCN(C)Cc2cn(CCOCCOCCOCCOCCOCCNC(=O)CCC(NC(=O)c3ccc(N(C)Cc4cnc5nc(N)nc(N)c5n4)cc3)C(=O)O)nn2)cc1)c1ccccc1 (centres unmarked) [MTX-PEG6-tamoxifen]
3 x/4: [10]
1 x/4: [1] | [2]; [14] | [2]; [15] | [3] | [4] | [5] | [6]; [14] | [6]; [15] | [8] | [9] | [11] | [12] | [13]; [14] | [13]; [15]
4 x/4: [7]; [14] | [7]; [15]
